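Cultured in 96-well plates, cells were exposed to test compound for 48 hours across five concentrations. Abbreviation: GI50, concentration required for 50% inhibition of growth. TGI: total growth inhibition.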
Key:
Assay in all cases: DTP human tumour cell line panel, 48 h
[1] = tested on: HL-60(TB) leukemia
[2] = tested on: CAKI-1 renal
[3] = tested on: OVCAR-8 ovarian
[4] = tested on: EKVX NSCLC
[5] = tested on: HCC-2998 colon
[6] = tested on: RXF 393 renal
[7] = tested on: RPMI-8226 leukemia
[8] = tested on: MDA-MB-231 breast
[9] = tested on: SNB-19 CNS
[10] = tested on: NCI-H23 lung

SMILES | GI50 [1] [µM] | TGI [1] [µM] | GI50 [2] [µM] | TGI [2] [µM] | GI50 [3] [µM] | TGI [3] [µM] | GI50 [4] [µM] | TGI [4] [µM] | GI50 [5] [µM] | TGI [5] [µM] | GI50 [6] [µM] | TGI [6] [µM] | GI50 [7] [µM] | TGI [7] [µM] | GI50 [8] [µM] | TGI [8] [µM] | GI50 [9] [µM] | TGI [9] [µM] | GI50 [10] [µM] | TGI [10] [µM]
COc1ccc(C2C(C#N)=C(N)OC3=C2CCCc2ccc(F)cc23)cc1OC (stereo not given) | 32 | > 100 | 34.2 | 65.3 | 21.4 | 53.5 | 10.1 | 37.5 | 15.6 | 31.6 | 18.7 | 45.7 | 7.46 | 22.8 | 17.3 | 45.5 | 30.2 | > 82.4 | 22.8 | > 65.9
COc1cc(-c2cn(C)c(=O)c(C)c2C)cc(OC)c1CN1CC[C@H](N2CCN(c3ccc(N[C@H]4CCC(=O)NC4=O)cc3F)CC2)C(F)(F)C1 | 2.92 | > 100 | 6.87 | 33.4 | 11.2 | 25.7 | 12.7 | 34.9 | 12.9 | 25.8 | 11.1 | 25 | 6.43 | > 100 | 11.5 | 25.4 | 14.8 | 31.6 | 14 | 28.6
CC(C)(C)c1nc2c(o1)C(=Nc1ccc(F)cc1)c1ccccc1C2=O |  | > 44.9 |  | > 100 |  | > 61.2 |  | > 83.5 |  | 20.5 |  | 37.9 |  | > 100 |  | > 100 |  | 26.6 |  | 8.98
Nc1ccc(SC23CC4CC(CC(C4)C2)C3)cc1 |  | > 100 |  | > 100 |  | > 100 |  | > 100 |  | > 100 |  | > 100 |  | > 100 |  | > 100 |  | > 100 |  | > 100
CC(=O)n1c(-c2ccc(Cl)cc2)nc2c(c1=O)C(c1ccc(Cl)cc1)c1sc3c(Cl)cccc3c1O2 (stereo not given) | 0.289 | 0.853 | 0.488 | 3.03 | 0.626 | 3.02 | 0.926 | 3.71 | 1.09 | 2.57 | 0.251 | 0.85 | 0.504 | 4.75 | 0.887 | 2.89 | 0.469 | 1.98 | 0.513 | 2.32
C=CCOc1c(Br)cc(Br)cc1Br | 32.1 | 89.3 | 13 | 83.6 | 28.2 | > 100 | 10.3 | > 100 | 46.4 | > 100 | 19.3 | > 100 | 16.2 | > 100 | 6.7 | > 100 | 17.4 | > 100 | 10.1 | > 100
Cc1noc(C)c1-c1ccc2[nH]c(=O)n3c2c1OC[C@@H]3c1ccccn1 | 0.144 | > 100 | 0.151 | > 100 | 11 | > 100 | 2.39 | > 100 | 2 | > 100 | 1.26 | > 25.3 | 0.267 | > 20.2 | 0.868 | > 100 | 4.81 | > 100 | 9.44 | > 100
C[C@H]1CCC/C=C/[C@@H]2C[C@H](N)C[C@H]2[C@H](O)/C=C/C(=O)O1 | 98.4 | > 100 | > 100 | > 100 | > 100 | > 100 | > 100 | > 100 | > 100 | > 100 | > 100 | > 100 | > 100 | > 100 | > 100 | > 100 | > 100 | > 100 | > 100 | > 100
COc1ccc(NC2=C(Br)C(=O)C(C)=C(C)C2=O)cc1 | 2.34 | 6.82 | 1.72 | 3.11 | 2.22 | 5.31 | 1.69 | 3.12 | 12.4 | 26.5 | 2.71 | 8.13 | 2.21 | 5.01 | 1.88 | 3.96 | 10.5 | 22.8 | 4.41 | 23.7

Reference: PubChem BioAssay (NCI)
